{
  "source": "patent US20170252442A1",
  "about": "“PHOTOHEXER COMPOUNDS AND PHARMACEUTICAL COMPOSITION AND USE THEREOF” (RAINBOW PHARMATECH LLC, priority 2014, published 2017)",
  "format_in_all_cases": "cell-based, human",
  "key": {"Caco2 cells": {"tested_on": "Caco2 cells", "assay": "MTT assay, photodynamic therapy on Caco2 cells", "description": "(§1) The cells in logarithmic growth phase were collected and inoculated on 24-well culture plates. When reaching 70%-80% confluence, cells were divided randomly into the following groups: control (the parallel control group without photosensitizer and irradiation), irradiation (irradiation treatment alone without photosensitizer); (photosensitizer treatment alone without irradiation), photodynamic treatment (treatment by photosensitizer in combination with irradiation). For the photosensitizer alone treatment group and photodynamic treatment group, an appropriate amount of Photohexer-1 (P-1) or Photohexer-2 (P-2) was respectively added away from light to give a final concentration of 0.8, 1.6, 3.2, 6.4 μM. Each group set 3 replicates. Cells were incubated with the active agent, different treatments were carried out according to the grouping. […] After treatment and digestion of each group of cells, it was inoculated into a 96-well plate at 100 μL/well, and four wells were set for each treatment. MTT assay was performed after 24 h from inoculation: 20 μL MTT solution was added to each well under the condition away from light, and the culture was continued for 4 hours. 150 μL DMSO was added to each well after discarding the supernatant. After 15 min of dissolution, the absorbance value (OD value) was measured using a microplate reader and the relative survival rate of cells was calculated according to the following formula: […]"}, "MDA-MB-231 cells": {"tested_on": "MDA-MB-231 cells", "assay": "MTT assay, photodynamic therapy on MDA-MB-231 cells", "description": "as §1"}, "SW-620 cells": {"tested_on": "SW-620 cells", "assay": "MTT assay, photodynamic therapy on SW-620 cells", "description": "as §1"}, "MCF-7 cells": {"tested_on": "MCF-7 cells", "assay": "MTT assay, photodynamic therapy on MCF-7 cells", "description": "as §1"}, "[1]": {"conditions": "0.8 μM alone treatment, without irradiation"}, "[2]": {"conditions": "0.8 μM combined with 2.6 J/cm^2 light irradiation"}, "[3]": {"conditions": "0.8 μM combined with 5.2 J/cm^2 light irradiation"}, "[4]": {"conditions": "0.8 μM combined with 10.4 J/cm^2 light irradiation"}, "[5]": {"conditions": "1.6 μM alone treatment, without irradiation"}, "[6]": {"conditions": "1.6 μM combined with 2.6 J/cm^2 light irradiation"}, "[7]": {"conditions": "1.6 μM combined with 5.2 J/cm^2 light irradiation"}, "[8]": {"conditions": "1.6 μM combined with 10.4 J/cm^2 light irradiation"}, "[9]": {"conditions": "3.2 μM alone treatment, without irradiation"}, "[10]": {"conditions": "3.2 μM combined with 2.6 J/cm^2 light irradiation"}, "[11]": {"conditions": "3.2 μM combined with 5.2 J/cm^2 light irradiation"}, "[12]": {"conditions": "3.2 μM combined with 10.4 J/cm^2 light irradiation"}, "[13]": {"conditions": "6.4 μM alone treatment, without irradiation"}, "[14]": {"conditions": "6.4 μM combined with 2.6 J/cm^2 light irradiation"}, "[15]": {"conditions": "6.4 μM combined with 5.2 J/cm^2 light irradiation"}, "[16]": {"conditions": "6.4 μM combined with 10.4 J/cm^2 light irradiation"}},
  "data": [
    {"smiles": "C=CC1=C(C)c2cc3[nH]c(cc4nc(cc5[nH]c(cc1n2)c(C)c5CCC(=O)[O-])C(CCC(=O)[O-])=C4C)c(C)c3C(C)OCCCCCC.[Na+].[Na+]", "note": "(stereo not shown) [Photohexer P-1, 2-(1-hexyloxyethyl)-6,7-bis(propionatesodium)-1,3,5,8-tetramethyl-4-vinylporphyrin]", "values": [
      {"measurement": "Cell survival rate", "setting": "Caco2 cells; [1]", "value": "99.34 ± 3.40", "unit": "%"},
      {"measurement": "Cell survival rate", "setting": "Caco2 cells; [2]", "value": "95.31 ± 3.86", "unit": "%"},
      {"measurement": "Cell survival rate", "setting": "Caco2 cells; [3]", "value": "93.10 ± 3.96", "unit": "%"},
      {"measurement": "Cell survival rate", "setting": "Caco2 cells; [4]", "value": "88.18 ± 4.24", "unit": "%"},
      {"measurement": "Cell survival rate", "setting": "Caco2 cells; [5]", "value": "97.36 ± 2.42", "unit": "%"},
      {"measurement": "Cell survival rate", "setting": "Caco2 cells; [6]", "value": "91.33 ± 2.69", "unit": "%"},
      {"measurement": "Cell survival rate", "setting": "Caco2 cells; [7]", "value": "89.01 ± 2.88", "unit": "%"},
      {"measurement": "Cell survival rate", "setting": "Caco2 cells; [8]", "value": "87.63 ± 3.49", "unit": "%"},
      {"measurement": "Cell survival rate", "setting": "Caco2 cells; [9]", "value": "95.34 ± 1.67", "unit": "%"},
      {"measurement": "Cell survival rate", "setting": "Caco2 cells; [10]", "value": "89.49 ± 2.15", "unit": "%"},
      {"measurement": "Cell survival rate", "setting": "Caco2 cells; [11]", "value": "87.46 ± 1.67", "unit": "%"},
      {"measurement": "Cell survival rate", "setting": "Caco2 cells; [12]", "value": "84.32 ± 2.76", "unit": "%"},
      {"measurement": "Cell survival rate", "setting": "Caco2 cells; [13]", "value": "83.33 ± 1.24", "unit": "%"},
      {"measurement": "Cell survival rate", "setting": "Caco2 cells; [14]", "value": "81.65 ± 1.07", "unit": "%"},
      {"measurement": "Cell survival rate", "setting": "Caco2 cells; [15]", "value": "74.26 ± 1.14", "unit": "%"},
      {"measurement": "Cell survival rate", "setting": "Caco2 cells; [16]", "value": "66.34 ± 1.17", "unit": "%"},
      {"measurement": "Cell survival rate", "setting": "MDA-MB-231 cells; [1]", "value": "97.82 ± 3.12", "unit": "%"},
      {"measurement": "Cell survival rate", "setting": "MDA-MB-231 cells; [2]", "value": "93.29 ± 3.66", "unit": "%"},
      {"measurement": "Cell survival rate", "setting": "MDA-MB-231 cells; [3]", "value": "90.67 ± 4.08", "unit": "%"},
      {"measurement": "Cell survival rate", "setting": "MDA-MB-231 cells; [4]", "value": "88.23 ± 4.09", "unit": "%"},
      {"measurement": "Cell survival rate", "setting": "MDA-MB-231 cells; [5]", "value": "91.07 ± 2.02", "unit": "%"},
      {"measurement": "Cell survival rate", "setting": "MDA-MB-231 cells; [6]", "value": "81.63 ± 2.87", "unit": "%"},
      {"measurement": "Cell survival rate", "setting": "MDA-MB-231 cells; [7]", "value": "76.33 ± 2.91", "unit": "%"},
      {"measurement": "Cell survival rate", "setting": "MDA-MB-231 cells; [8]", "value": "71.13 ± 3.79", "unit": "%"},
      {"measurement": "Cell survival rate", "setting": "MDA-MB-231 cells; [9]", "value": "75.52 ± 1.07", "unit": "%"},
      {"measurement": "Cell survival rate", "setting": "MDA-MB-231 cells; [10]", "value": "70.24 ± 2.03", "unit": "%"},
      {"measurement": "Cell survival rate", "setting": "MDA-MB-231 cells; [11]", "value": "68.08 ± 1.43", "unit": "%"},
      {"measurement": "Cell survival rate", "setting": "MDA-MB-231 cells; [12]", "value": "61.29 ± 2.27", "unit": "%"},
      {"measurement": "Cell survival rate", "setting": "MDA-MB-231 cells; [13]", "value": "70.10 ± 0.99", "unit": "%"},
      {"measurement": "Cell survival rate", "setting": "MDA-MB-231 cells; [14]", "value": "62.22 ± 1.04", "unit": "%"},
      {"measurement": "Cell survival rate", "setting": "MDA-MB-231 cells; [15]", "value": "64.88 ± 1.07", "unit": "%"},
      {"measurement": "Cell survival rate", "setting": "MDA-MB-231 cells; [16]", "value": "56.27 ± 1.06", "unit": "%"},
      {"measurement": "Cell survival rate", "setting": "SW-620 cells; [1]", "value": "101.33 ± 3.20", "unit": "%"},
      {"measurement": "Cell survival rate", "setting": "SW-620 cells; [2]", "value": "100.74 ± 3.46", "unit": "%"},
      {"measurement": "Cell survival rate", "setting": "SW-620 cells; [3]", "value": "99.53 ± 3.71", "unit": "%"},
      {"measurement": "Cell survival rate", "setting": "SW-620 cells; [4]", "value": "94.65 ± 4.04", "unit": "%"},
      {"measurement": "Cell survival rate", "setting": "SW-620 cells; [5]", "value": "100.99 ± 2.47", "unit": "%"},
      {"measurement": "Cell survival rate", "setting": "SW-620 cells; [6]", "value": "96.64 ± 2.79", "unit": "%"},
      {"measurement": "Cell survival rate", "setting": "SW-620 cells; [7]", "value": "91.84 ± 2.97", "unit": "%"},
      {"measurement": "Cell survival rate", "setting": "SW-620 cells; [8]", "value": "87.51 ± 3.16", "unit": "%"},
      {"measurement": "Cell survival rate", "setting": "SW-620 cells; [9]", "value": "98.23 ± 1.59", "unit": "%"},
      {"measurement": "Cell survival rate", "setting": "SW-620 cells; [10]", "value": "91.39 ± 2.18", "unit": "%"},
      {"measurement": "Cell survival rate", "setting": "SW-620 cells; [11]", "value": "87.50 ± 1.69", "unit": "%"},
      {"measurement": "Cell survival rate", "setting": "SW-620 cells; [12]", "value": "82.58 ± 2.31", "unit": "%"},
      {"measurement": "Cell survival rate", "setting": "SW-620 cells; [13]", "value": "94.83 ± 1.09", "unit": "%"},
      {"measurement": "Cell survival rate", "setting": "SW-620 cells; [14]", "value": "86.70 ± 1.07", "unit": "%"},
      {"measurement": "Cell survival rate", "setting": "SW-620 cells; [15]", "value": "75.53 ± 1.03", "unit": "%"},
      {"measurement": "Cell survival rate", "setting": "SW-620 cells; [16]", "value": "68.33 ± 1.11", "unit": "%"},
      {"measurement": "sensitivity compared between P-1 and P-2", "setting": "MCF-7 cells", "value": "more sensitive than P-2"},
      {"measurement": "Cell survival rate", "setting": "MCF-7 cells; [1]", "value": "102.94 ± 3.04", "unit": "%"},
      {"measurement": "Cell survival rate", "setting": "MCF-7 cells; [2]", "value": "78.02 ± 4.55", "unit": "%"},
      {"measurement": "Cell survival rate", "setting": "MCF-7 cells; [3]", "value": "68.03 ± 3.97", "unit": "%"}
    ]}
  ]
}
